Experimental data taken from PubChem BioAssay (NCI).
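Tested at 5 concentrations; 48 h exposure; 96-well plates; endpoints linearly interpolated, else capped at highest concentration. The concentration for 50% growth inhibition is given as GI50. TGI marks complete inhibition of growth.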

Experiments:
Assay in all cases: DTP human tumour cell line panel, 48 h
[1] = tested on: SW-620 colon
[2] = tested on: HOP-92 NSCLC
[3] = tested on: SK-MEL-2 melanoma
[4] = tested on: COLO 205 colon
[5] = tested on: SK-MEL-28 melanoma
[6] = tested on: OVCAR-5 ovarian
[7] = tested on: HS 578T breast
[8] = tested on: MDA-MB-231 breast
[9] = tested on: PC-3 prostate
[10] = tested on: DU-145 prostate

SMILES	TGI [1] [µM]	TGI [2] [µM]	TGI [3] [µM]	TGI [4] [µM]	TGI [5] [µM]	TGI [6] [µM]	TGI [7] [µM]	TGI [8] [µM]	TGI [9] [µM]	TGI [10] [µM]	GI50 [7] [µM]	GI50 [1] [µM]	GI50 [2] [µM]	GI50 [8] [µM]	GI50 [3] [µM]	GI50 [9] [µM]	GI50 [10] [µM]	GI50 [4] [µM]	GI50 [5] [µM]	GI50 [6] [µM]
COc1ccc2c(c1)CCc1c-2n[nH]c1-c1[nH]nc2c1CCc1cc(OC)ccc1-2	> 100	78.1	> 100	> 100	> 100	> 100	–	–	–	–	–	–	–	–	–	–	–	–	–	–
COCCNc1cncc(C(N)=O)c1	> 100	–	> 100	> 100	> 100	> 100	> 100	> 100	> 100	> 100	–	–	–	–	–	–	–	–	–	–
C[C@H]1C=C2C(=O)O[C@H]3CC[C@@H](C1)[C@@]23O	10.3	16.3	10.1	12.5	16.1	12.7	–	–	–	–	–	–	–	–	–	–	–	–	–	–
O=C(/C=C/C12c3ccccc3C(c3ccccc31)C1C(=O)NC(=O)C12)c1ccccc1 (stereo not given)	4.93	3.52	4.62	4.03	3.63	4.83	7.68	13.1	3.45	3.51	2.19	1.92	1.41	2.96	2.35	1.62	1.64	2.05	1.88	2.01
CCOC(=O)C1=C(C)NC(c2ccco2)=C(C#N)C1c1cccc([N+](=O)[O-])c1 (stereo not given)	1.73	–	24.3	0.039	22.5	99.5	0.0885	4.53	0.0554	4.02	–	0.0101	–	0.0443	0.0115	–	0.0316	0.0149	0.0105	0.0331
Cc1cccc2c1[nH]c(=O)c1c3ccccc3cn21	17.8	32.2	> 100	34.8	> 100	65.4	64.4	17.5	29.3	17.6	21.8	5.76	3.97	2.42	14.4	3.9	5.26	7.33	6.86	17.9
C=C1CCC2C3(C)COC(c4ccccc4Cl)OC3CCC2(C)C1/C=C/C1=CCOC1=O (stereo not given)	> 100	> 100	> 100	> 100	> 100	> 100	> 100	> 100	> 100	> 100	> 100	25	1.6	> 100	77.7	3.17	> 100	17.9	> 100	> 100
COc1ccc(S(=O)(=O)N(C(C)=O)c2ccccc2/C=C/c2cc[n+]([O-])cc2)cc1	> 10	> 10	> 10	2.3	> 10	> 10	> 10	> 10	> 10	> 10	0.404	0.559	–	1.26	0.54	0.688	0.813	0.529	> 4.8	3.26
CC(=O)NN1C(=O)C(Cc2ccccc2)c2ccccc21 (stereo not given)	> 100	> 100	> 100	> 100	> 100	> 100	–	–	–	–	–	–	–	–	–	–	–	–	–	–
COc1cc(/C=C2\CCCC3=C2N=C2SC(C)=NN2C3c2cc(OC)c(OC)c(OC)c2)cc(OC)c1OC (stereo not given)	> 100	> 100	> 100	> 100	–	–	> 100	–	> 100	–	> 100	0.41	> 100	–	> 100	> 100	–	0.429	–	–
Nc1c2ccccc2nc2c(C(=O)Nc3ccc(S(N)(=O)=O)cc3)cccc12	> 100	–	> 100	> 100	> 100	> 100	–	–	–	–	–	–	–	–	–	–	–	–	–	–
CCOC(=O)/C=C/c1cccc(F)c1	> 100	> 100	> 100	> 100	> 100	> 100	–	> 100	> 100	> 100	–	–	–	–	–	–	–	–	–	–
CCCCN(CCCC)CC(C(C)=O)C(c1ccccc1)c1c(O)c2ccccc2oc1=O (stereo not given)	> 100	> 100	> 100	> 100	> 100	> 100	–	–	–	–	–	–	–	–	–	–	–	–	–	–
COc1ccc(OC(C)C(=O)O)c2c(=O)ccccc12 (stereo not given)	> 100	–	> 100	> 100	> 100	> 100	–	–	–	–	–	–	–	–	–	–	–	–	–	–
CC(=O)Oc1ccc2c(c1)C(=O)c1nc(C)c(C)nc1C2=O	> 100	> 100	> 86.3	> 100	> 100	> 100	–	–	–	–	–	–	–	–	–	–	–	–	–	–
CC1c2[nH]c3ccccc3c2CCN1O (stereo not given)	> 100	> 100	> 100	> 100	> 100	> 100	–	–	–	–	–	–	–	–	–	–	–	–	–	–
C=C1C[C@@H]2C[C@@H](C)CC(O)[C@]2(CCCN)C1O (stereo not given in full)	> 100	> 100	> 100	> 100	> 100	> 100	–	–	–	–	–	–	–	–	–	–	–	–	–	–
c1ccc(OC2=NC3=S(S2)SC(Oc2ccccc2)=N3)cc1	35.2	–	29.8	37.2	–	41.9	–	–	–	–	–	–	–	–	–	–	–	–	–	–
CN(N)c1nc(N)c(C#N)c(C#N)c1C#N	> 10	> 10	–	> 10	> 10	> 10	> 10	> 10	> 10	> 10	–	–	–	–	–	–	–	–	–	–
